Results reported in patent publication US8273774B2, “Phenoxypyridinylamide compounds” (AstraZeneca AB, priority 2008, dated 2012).

Target: recombinant Human Phosphodiesterase B2 (PDE4B2) (Homo sapiens, UniProt Q07343)
Experiment: Human Phosphodiesterase B2 Radiometric Assay
Assay type: biochemical
Conditions: 0.1 μg/mL recombinant PDE4B2; preincubated at 30 C for 30 min; [3H]cyclic AMP 8 nM, stopped after 20 min; yttrium silicate SPA beads; read-out: PDE4B2 pIC50 (converted)
Summary of the method: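 SPA read-out: product 5′AMP binds yttrium silicate beads (added with 18 mM ZnSO4 after 20 min) in preference to [3H]cAMP substrate, given at 8 nM final.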

recombinant Human Phosphodiesterase B2 (PDE4B2), sequence (Q07343 1-564 isoform Q07343-2): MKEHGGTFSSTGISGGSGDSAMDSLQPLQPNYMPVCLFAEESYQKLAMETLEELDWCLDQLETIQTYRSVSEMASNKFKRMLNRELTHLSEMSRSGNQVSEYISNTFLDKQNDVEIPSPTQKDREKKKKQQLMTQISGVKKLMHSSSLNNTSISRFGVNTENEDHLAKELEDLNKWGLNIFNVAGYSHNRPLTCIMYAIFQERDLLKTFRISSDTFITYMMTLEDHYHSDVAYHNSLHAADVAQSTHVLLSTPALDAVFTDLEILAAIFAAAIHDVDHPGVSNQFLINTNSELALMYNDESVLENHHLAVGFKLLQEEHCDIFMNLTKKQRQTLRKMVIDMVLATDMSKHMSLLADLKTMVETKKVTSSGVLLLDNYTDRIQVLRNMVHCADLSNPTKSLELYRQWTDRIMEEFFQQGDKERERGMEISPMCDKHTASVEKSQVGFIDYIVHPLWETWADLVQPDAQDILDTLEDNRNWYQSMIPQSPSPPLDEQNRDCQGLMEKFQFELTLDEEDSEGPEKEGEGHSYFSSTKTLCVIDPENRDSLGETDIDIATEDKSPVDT

Row | Compound | IC50
1 | Cc1nc(C(=O)N[C@H]2CC[C@@H](NC(=O)c3cc(F)cnc3Oc3cccc(-c4ccc(CCCN5CCCC5)cc4)c3)CC2)cs1 [Example 73, N-((1s,4s)-4-(5-fluoro-2-(4′-(3-(pyrrolidin-1-yl)propyl)biphenyl-3-yloxy)nicotinamido)cyclohexyl)-2-methylthiazole-4-carboxamide] | 63.1 pM
2 | Cc1nc(C(=O)N[C@H]2CC[C@@H](NC(=O)c3cc(F)cnc3Oc3cccc(-c4ccc(CCCN5CCNCC5)cc4)c3)CC2)cs1 [Example 74, N-((1s,4s)-4-(5-fluoro-2-(4′-(3-(piperazin-1-yl)propyl)biphenyl-3-yloxy)nicotinamido)cyclohexyl)-2-methylthiazole-4-carboxamide] | 25.1 pM
3 | Cc1nc(C(=O)N[C@H]2CC[C@@H](NC(=O)c3cc(F)cnc3Oc3cccc(-c4ccc(CCCN5C[C@@H](C)N[C@@H](C)C5)cc4)c3)CC2)cs1 [Example 75, N-((1s,4s)-4-(2-(4′-(3-((3S,5R)-3,5-dimethylpiperazin-1-yl)propyl)biphenyl-3-yloxy)-5-fluoronicotinamido)cyclohexyl)-2-methylthiazole-4-carboxamide] | 31.6 pM
4 | CCc1nc(C(=O)N[C@H]2CC[C@@H](NC(=O)c3cc(F)cnc3Oc3cccc(-c4ccc(CN5C[C@@H](C)N[C@@H](C)C5)cc4)c3)CC2)cs1 [Example 76, N-((1s,4s)-4-(2-(4′-(((3S,5R)-3,5-dimethylpiperazin-1-yl)methyl)biphenyl-3-yloxy)-5-fluoronicotinamido)cyclohexyl)-2-ethylthiazole-4-carboxamide] | 63.1 pM
5 | Cc1cc(C(=O)N[C@H]2CC[C@@H](NC(=O)c3cc(F)cnc3Oc3cccc(-c4ccc(O)c(CN5CCN(C(C)C)CC5)c4)c3)CC2)nn1C [Example 77, N-((1s,4s)-4-(1,5-dimethyl-1H-pyrazole-3-carboxamido)cyclohexyl)-5-fluoro-2-(4′-hydroxy-3′-((4-isopropylpiperazin-1-yl)methyl)biphenyl-3-yloxy)nicotinamide] | 63.1 pM
6 | Cc1cc(C(=O)N[C@H]2CC[C@@H](NC(=O)c3cc(F)cnc3Oc3cccc(-c4ccc(CCCN5CCCC5)cc4)c3)CC2)nn1C [Example 79, N-((1s,4s)-4-(1,5-dimethyl-1H-pyrazole-3-carboxamido)cyclohexyl)-5-fluoro-2-(4′-(3-(pyrrolidin-1-yl)propyl)biphenyl-3-yloxy)nicotinamide] | 31.6 pM
7 | Cc1cc(C(=O)N[C@H]2CC[C@@H](NC(=O)c3cc(F)cnc3Oc3cccc(-c4ccc(CCCN5CCN(C)CC5)cc4)c3)CC2)nn1C [Example 80, N-((1s,4s)-4-(1,5-dimethyl-1H-pyrazole-3-carboxamido)cyclohexyl)-5-fluoro-2-(4′-(3-(4-methylpiperazin-1-yl)propyl)biphenyl-3-yloxy)nicotinamide] | 39.8 pM
8 | Cc1cc(C(=O)N[C@H]2CC[C@@H](NC(=O)c3cc(F)cnc3Oc3cccc(-c4ccc(CCCN5C[C@@H](C)N[C@@H](C)C5)cc4)c3)CC2)nn1C [Example 81, N-((1s,4s)-4-(1,5-dimethyl-1H-pyrazole-3-carboxamido)cyclohexyl)-2-(4′-(3-((3S,5R)-3,5-dimethylpiperazin-1-yl)propyl)biphenyl-3-yloxy)-5-fluoronicotinamide] | 31.6 pM
9 | Cc1cc(C(=O)N[C@H]2CC[C@@H](NC(=O)c3cc(F)cnc3Oc3cccc(-c4ccc(CCN5C[C@@H](C)N[C@@H](C)C5)cc4)c3)CC2)nn1C [Example 82, N-((1s,4s)-4-(1,5-dimethyl-1H-pyrazole-3-carboxamido)cyclohexyl)-2-(4′-(2-((3S,5R)-3,5-dimethylpiperazin-1-yl)ethyl)biphenyl-3-yloxy)-5-fluoronicotinamide] | 20 pM
10 | Cc1cc(C(=O)N[C@H]2CC[C@@H](NC(=O)c3cc(F)cnc3Oc3cccc(-c4ccc(CCN5CCN(C(C)C)CC5)cc4)c3)CC2)nn1C [Example 83, N-((1s,4s)-4-(1,5-dimethyl-1H-pyrazole-3-carboxamido)cyclohexyl)-5-fluoro-2-(4′-(2-(4-isopropylpiperazin-1-yl)ethyl)biphenyl-3-yloxy)nicotinamide] | 25.1 pM
11 | Cc1nc(C(=O)N[C@H]2CC[C@@H](NC(=O)c3cc(F)cnc3Oc3cccc(-c4ccc(CCN5C[C@@H](C)N[C@@H](C)C5)cc4)c3)CC2)cs1 [Example 86, N-((1s,4s)-4-(2-(4′-(2-((3S,5R)-3,5-dimethylpiperazin-1-yl)ethyl)biphenyl-3-yloxy)-5-fluoronicotinamido)cyclohexyl)-2-methylthiazole-4-carboxamide] | 31.6 pM
12 | Cc1nc(C(=O)N[C@H]2CC[C@@H](NC(=O)c3cc(F)cnc3Oc3cccc(-c4ccc(CCN5CCCN(C)CC5)cc4)c3)CC2)cs1 [Example 87, N-((1s,4s)-4-(5-fluoro-2-(4′-(2-(4-methyl-1,4-diazepan-1-yl)ethyl)biphenyl-3-yloxy)nicotinamido)cyclohexyl)-2-methylthiazole-4-carboxamide] | 25.1 pM
13 | Cc1cccc2nc(C(=O)N[C@H]3CC[C@@H](NC(=O)c4cc(F)cnc4Oc4cccc(-c5ccc(CCCN6CCNCC6)cc5)c4)CC3)cn12 [Example 93, N-((1s,4s)-4-(5-fluoro-2-(4′-(3-(piperazin-1-yl)propyl)biphenyl-3-yloxy)nicotinamido)cyclohexyl)-5-methylimidazo[1,2-a]pyridine-2-carboxamide] | 100 pM

Second part, the compound after the results:

Row | IC50 | Compound
14 | 63.1 pM | Cc1cc(C(=O)N[C@H]2CC[C@@H](NC(=O)c3cc(F)cnc3Oc3cccc(-c4cccc(CN5C[C@@H](C)N[C@@H](C)C5)c4)c3)CC2)nn1C [Example 72, N-((1s,4s)-4-(1,5-dimethyl-1H-pyrazole-3-carboxamido)cyclohexyl)-2-(3′-(((3S,5R)-3,5-dimethylpiperazin-1-yl)methyl)biphenyl-3-yloxy)-5-fluoronicotinamide]
15 | 79.4 pM | Cc1cc(C(=O)N[C@H]2CC[C@@H](NC(=O)c3cc(F)cnc3Oc3cccc(-c4cccc(CN5C[C@@H](C)N[C@@H](C)C5)c4O)c3)CC2)nn1C [Example 78, N-((1s,4s)-4-(1,5-dimethyl-1H-pyrazole-3-carboxamido)cyclohexyl)-2-(3′-(((3R,5S)-3,5-dimethylpiperazin-1-yl)methyl)-2′-hydroxybiphenyl-3-yloxy)-5-fluoronicotinamide]
16 | 158 pM | C[C@@H]1CN(Cc2cc(-c3cccc(Oc4ncc(F)cc4C(=O)N[C@H]4CC[C@@H](NC(=O)c5cn6cc(F)ccc6n5)CC4)c3)ccc2O)C[C@H](C)N1 [Example 84, N-((1s,4s)-4-(2-(3′-(((3S,5R)-3,5-dimethylpiperazin-1-yl)methyl)-4′-hydroxybiphenyl-3-yloxy)-5-fluoronicotinamido)cyclohexyl)-6-fluoroimidazo[1,2-a]pyridine-2-carboxamide]
17 | 63.1 pM | Cc1cccc2nc(C(=O)N[C@H]3CC[C@@H](NC(=O)c4cc(F)cnc4Oc4cccc(-c5ccc(O)c(CN6C[C@@H](C)N[C@@H](C)C6)c5)c4)CC3)cn12 [Example 85, N-((1s,4s)-4-(2-(3′-(((3S,5R)-3,5-dimethylpiperazin-1-yl)methyl)-4′-hydroxybiphenyl-3-yloxy)-5-fluoronicotinamido)cyclohexyl)-5-methylimidazo[1,2-a]pyridine-2-carboxamide]
18 | 31.6 pM | Cc1csc(C(=O)N[C@H]2CC[C@@H](NC(=O)c3cc(F)cnc3Oc3cccc(-c4ccc(O)c(CN5C[C@@H](C)N[C@@H](C)C5)c4)c3)CC2)n1 [Example 88, N-((1s,4s)-4-(2-(3′-(((3S,5R)-3,5-dimethylpiperazin-1-yl)methyl)-4′-hydroxybiphenyl-3-yloxy)-5-fluoronicotinamido)cyclohexyl)-4-methylthiazole-2-carboxamide]
19 | 79.4 pM | Cc1cccc(C(=O)N[C@H]2CC[C@@H](NC(=O)c3cc(F)cnc3Oc3cccc(-c4ccc(O)c(CN5C[C@@H](C)N[C@@H](C)C5)c4)c3)CC2)n1 [Example 89, N-((1s,4s)-4-(2-(3′-(((3S,5R)-3,5-dimethylpiperazin-1-yl)methyl)-4′-hydroxybiphenyl-3-yloxy)-5-fluoronicotinamido)cyclohexyl)-6-methylpicolinamide]
20 | 200 pM | CC(C)c1nc(C(=O)N[C@H]2CC[C@@H](NC(=O)c3cc(F)cnc3Oc3cccc(-c4ccc(O)c(CN5C[C@@H](C)N[C@@H](C)C5)c4)c3)CC2)cs1 [Example 90, N-((1s,4s)-4-(2-(3′-(((3S,5R)-3,5-dimethylpiperazin-1-yl)methyl)-4′-hydroxybiphenyl-3-yloxy)-5-fluoronicotinamido)cyclohexyl)-2-isopropylthiazole-4-carboxamide]
21 | 251 pM | C[C@@H]1CN(Cc2cc(-c3cccc(Oc4ncc(F)cc4C(=O)N[C@H]4CC[C@@H](NC(=O)c5cn6c(n5)CCCC6)CC4)c3)ccc2O)C[C@H](C)N1 [Example 91, N-((1s,4s)-4-(2-(3′-(((3S,5R)-3,5-dimethylpiperazin-1-yl)methyl)-4′-hydroxybiphenyl-3-yloxy)-5-fluoronicotinamido)cyclohexyl)-5,6,7,8-tetrahydroimidazo[1,2-a]pyridine-2-carboxamide]
22 | 126 pM | C[C@@H]1CN(Cc2cc(-c3cccc(Oc4ncc(F)cc4C(=O)N[C@H]4CC[C@@H](NC(=O)c5cc(C(F)(F)F)n(C)n5)CC4)c3)ccc2O)C[C@H](C)N1 [Example 92, 2-(3′-(((3S,5R)-3,5-dimethylpiperazin-1-yl)methyl)-4′-hydroxybiphenyl-3-yloxy)-5-fluoro-N-((1s,4s)-4-(1-methyl-5-(trifluoromethyl)-1H-pyrazole-3-carboxamido)cyclohexyl)nicotinamide]
23 | 63.1 pM | C[C@@H]1CN(Cc2cc(-c3cccc(Oc4ncc(F)cc4C(=O)N[C@H]4CC[C@@H](NC(=O)c5cccc6[nH]cnc56)CC4)c3)ccc2O)C[C@H](C)N1 [Example 94, N-((1s,4s)-4-(2-(3′-(((3S,5R)-3,5-dimethylpiperazin-1-yl)methyl)-4′-hydroxybiphenyl-3-yloxy)-5-fluoronicotinamido)cyclohexyl)-1H-benzo[d]imidazole-4-carboxamide]
